Holding throughout (assay): DTP human tumour cell line panel, 48 h
Test [1] concerns NCI-H226 lung.
Test [2] relates to PC-3 prostate.
Test [3] has as its system HS 578T breast.
The subject of test [4] is HL-60(TB) leukemia.
For test [5], the system named is UO-31 renal.
Test [6] concerns NCI-H23 lung.
Test [7] relates to DU-145 prostate.
For test [8], the system named is MDA-MB-231 breast.
Test [9] has as its system SR leukemia.
In test [10] the test system is HCC-2998 colon.

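In this assay, cells in 96-well plates receive the compound at five concentrations for 48 hours. Endpoints are linearly interpolated between the surrounding concentrations. GI50 = concentration required for 50% inhibition of growth. TGI denotes the concentration required for complete inhibition of growth.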

The term GI50 denotes the concentration at which growth is held to half of that of the control. As usually defined, the TGI is the concentration giving total growth inhibition. Lower therefore signals more potent growth arrest. `CCCCCCCCCCCCCCCCCCNC(=O)[C@H]1CSC(c2ccc(F)c(OC)c2)N1` (stereo not given in full): the GI50 in test [1] was 0.773 µM; in test [2] it was 1.55 µM; in [3] it was 1.24 µM; in test [4], 0.67 µM; in test [5] it was 5.57 µM; in [6], 1.42 µM. The GI50 in [7] is 1.79 µM; in [8], 0.842 µM; in [9], 0.637 µM; in [10], 1.05 µM. In addition, the total growth inhibition concentration (TGI) is 1.58 µM in test [1]; 12 µM in [2]; 2.97 µM in test [3]; 1.62 µM in [4]; greater than 50 µM in test [5]; 5.05 µM in test [6]. Besides, the total growth inhibition concentration (TGI) is greater than 50 µM in test [7], 1.67 µM in [8], 1.91 µM in test [9] and 1.94 µM in test [10].

As for `NC(=O)c1c(NC(=O)c2cccc(C(F)(F)F)c2)sc2c1CCC(=O)C2`, the GI50 in test [1] was 5.37 µM; in test [2], 0.218 µM; in test [3] it was 0.545 µM; in test [4] it was 0.442 µM; in test [5] it was 0.291 µM; in test [6], 0.317 µM. Moreover, the GI50 was 3.73 µM in test [7], 0.379 µM in test [8], 0.424 µM in test [9] and 2.59 µM in test [10]. Further, the TGI was greater than 100 µM in [1]; 2.1 µM in [2]; greater than 100 µM in [3]; 6.2 µM in test [4]; 1.19 µM in [5]; 4.29 µM in [6]. Moreover, the concentration for total growth inhibition (TGI) in test [7] was greater than 100 µM; in [8], 2.73 µM; in [9], greater than 100 µM; in test [10], greater than 76.9 µM.

Regarding `O=C(Nc1cccc(Cl)c1)c1cc(Cl)ccc1O`, the GI50 in [1] is 1.05 µM; in test [2], 2.6 µM; in test [3] it was 0.282 µM; in test [4] it was 0.561 µM; in test [5], 0.369 µM; in [6], 0.486 µM. The GI50 was 1.66 µM in [7], 1.15 µM in test [8], 0.457 µM in test [9] and 2.94 µM in test [10]. Further, the total growth inhibition concentration (TGI) is 4.12 µM in test [1]; greater than 25.2 µM in test [2]; 1.46 µM in [3]; 3.6 µM in test [4]; 7.08 µM in test [5]; 3.55 µM in [6]. Further, the TGI was greater than 54.1 µM in test [7], 8.23 µM in test [8], 2.96 µM in test [9] and greater than 29.6 µM in test [10].

In the case of `Cc1ccc(S(=O)c2ccc([N+](=O)[O-])c3nonc23)cc1` (stereo not given), the GI50 in test [1] is 15.7 µM; in test [2], 12.8 µM; in test [3] it was 21.1 µM; in test [4], 3.09 µM; in test [5], 2.4 µM; in test [6] it was 14.1 µM. The GI50 in [7] is 7.87 µM; in [8], 10.1 µM; in test [9], 3.39 µM; in test [10], 15.6 µM. The TGI in [1] came to 43.2 µM; in [2] it was 27.1 µM; in [3], 60.2 µM; in test [4], 8.93 µM; in test [5], 9.54 µM; in test [6], 30.4 µM. For the same compound, the TGI was 20.9 µM in test [7], 22.6 µM in test [8], greater than 100 µM in test [9] and 29.4 µM in test [10].

With `Nc1ccc2c(SCC(=O)Nc3ccccc3-c3ccccc3NC(=O)CSc3c4ccccc4nc4cc(N)ccc34)c3ccccc3nc2c1`, the total growth inhibition concentration (TGI) in test [1] was 72.6 µM; in test [2], 54.6 µM; in test [3] it was greater than 90 µM; in test [4] it was 36.6 µM; in test [5], 58.4 µM; in [6] it was 39.5 µM. Also, the total growth inhibition concentration (TGI) is greater than 58.7 µM in test [7], greater than 84 µM in test [8], greater than 100 µM in test [9] and 61.7 µM in test [10].

In the case of `CNc1ccc(N=Nc2cccc3ncccc23)cc1`, the GI50 in test [1] is greater than 100 µM; in [2], 15.3 µM; in test [3], 24.7 µM; in test [4], 4.88 µM; in test [5], 0.89 µM; in test [6], 17.1 µM. The GI50 was greater than 100 µM in test [7], 7.47 µM in test [8], 16.1 µM in [9] and 33.5 µM in test [10]. Further, the concentration for total growth inhibition (TGI) in test [1], in test [2], in test [3], in test [4], in test [5] and in test [6] was greater than 100 µM in each case. In addition, the concentration for total growth inhibition (TGI) in test [7] is greater than 100 µM; in [8], greater than 100 µM; in [9], greater than 88.7 µM; in test [10] it was greater than 100 µM.

Consider `CCCCCCCCCCCCNC(=O)[C@H]1CSC(c2ccsc2)N1` (stereo not given in full), for which the GI50 in test [1] was 0.896 µM; in test [2] it was 0.837 µM; in test [3], 1.17 µM; in test [4], 0.91 µM; in test [5], 0.826 µM; in test [6] it was 0.992 µM. Besides, the GI50 in test [7] was 0.979 µM; in test [8], 0.946 µM; in test [9], 0.882 µM; in [10], 0.955 µM. In addition, the TGI in test [1] was determined as 1.74 µM; in test [2], 1.56 µM; in [3] it was 2.45 µM; in test [4], 2.31 µM; in test [5] it was 1.51 µM; in test [6] it was 1.94 µM. Moreover, the TGI is 1.82 µM in test [7], 1.74 µM in test [8], 2.07 µM in test [9] and 2.15 µM in [10].

In the case of `NC1(C(=O)O)CSSC1`, the GI50 in test [1] was 2.7 µM; in test [2] it was 21.5 µM; in test [3] it was 3.91 µM; in [4] it was 2.82 µM; in test [5], 3.68 µM; in test [6], 3.02 µM. The GI50 was 7.63 µM in test [7], 17.1 µM in test [8], 17.8 µM in [9] and 16.1 µM in [10]. Also, the concentration for total growth inhibition (TGI) is 8.82 µM in test [1]; greater than 100 µM in test [2]; greater than 100 µM in test [3]; 11.9 µM in test [4]; 34.4 µM in [5]; 14.8 µM in test [6]. Besides, the concentration for total growth inhibition (TGI) in [7] is greater than 100 µM; in [8], 44.3 µM; in test [9], greater than 100 µM; in [10] it was 77.5 µM.

Source of the values: PubChem BioAssay (NCI).
